From PubChem BioAssay (NCI)
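In this assay, cells in 96-well plates receive the compound at five concentrations for 48 hours. Endpoints are linearly interpolated between the surrounding concentrations. GI50: concentration for 50% inhibition of growth. The concentration for full growth arrest is given as TGI.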 Where a SMILES comes first, the peptide text is derived from it. The star is where a group is joined. Boc = CC(C)(C)OC(=O)*; tBu = CC(C)(C)*

What was measured:
Experiment in all cases: inhibition of tumour cell growth, NCI panel, 48 h
CCRF-CEM leukemia = system: CCRF-CEM leukemia
EKVX NSCLC = system: EKVX NSCLC
MDA-MB-435 = system: MDA-MB-435
OVCAR-3 ovarian = system: OVCAR-3 ovarian
OVCAR-4 ovarian = system: OVCAR-4 ovarian
PC-3 prostate = system: PC-3 prostate
U251 CNS = system: U251 CNS
UACC-62 melanoma = system: UACC-62 melanoma
UO-31 renal = system: UO-31 renal

SMILES | TGI (CCRF-CEM leukemia) | TGI (EKVX NSCLC) | TGI (MDA-MB-435) | TGI (OVCAR-3 ovarian) | TGI (OVCAR-4 ovarian) | TGI (PC-3 prostate) | TGI (U251 CNS) | TGI (UACC-62 melanoma) | TGI (UO-31 renal) | GI50 (CCRF-CEM leukemia) | GI50 (EKVX NSCLC) | GI50 (MDA-MB-435) | GI50 (OVCAR-3 ovarian) | GI50 (OVCAR-4 ovarian) | GI50 (PC-3 prostate) | GI50 (U251 CNS) | GI50 (UACC-62 melanoma) | GI50 (UO-31 renal)
O/N=C1\CSc2ccccc2C1 | > 100 µM | 94.5 µM | > 100 µM | > 100 µM | > 100 µM | > 100 µM | > 100 µM | > 100 µM | > 100 µM |  |  |  |  |  |  |  |  | 
Cc1cc(C)nc(NC(=S)Nc2ccc(Cl)cc2)c1 | > 100 µM | > 100 µM | > 100 µM | > 100 µM | 61.1 µM | > 100 µM | > 100 µM | > 100 µM | > 100 µM |  |  |  |  |  |  |  |  | 
Cc1cc(NS(=O)(=O)c2ccc(NC(=O)c3ccc4nc5ccccc5c(Nc5ccc(S(=O)(=O)Nc6cc(C)on6)cc5)c4c3)cc2)no1 | > 50 µM | > 50 µM | > 50 µM | > 50 µM | > 50 µM | > 50 µM | > 50 µM | > 50 µM | > 50 µM |  |  |  |  |  |  |  |  | 
CC(OC(C)(C)C)C(NC(=O)C(N)CCCCNC(=O)OC(C)(C)C)C(=O)NC(Cc1ccccc1)C(=O)O (stereo not given) (H-Lys(Boc)-Thr(tBu)-Phe-OH; configuration not given here) | > 100 µM | > 100 µM | > 100 µM | > 100 µM | > 100 µM | > 100 µM | > 100 µM | > 100 µM | > 100 µM |  |  |  |  |  |  |  |  | 
O=S(=O)(O)c1ccc2c(N=Nc3c(O)ccc4ccccc34)cccc2c1 | > 100 µM | > 100 µM | > 100 µM | > 100 µM | > 100 µM | > 100 µM | > 100 µM | > 100 µM | > 100 µM |  |  |  |  |  |  |  |  | 
CON(C)C(=O)C(C)NC(=O)OC(C)(C)C (stereo not given) | > 100 µM | > 100 µM | > 100 µM | > 100 µM |  | > 100 µM | > 100 µM | > 100 µM | > 100 µM |  |  |  |  |  |  |  |  | 
COc1ccc(/C=N/n2c(Cc3ccccc3)n[nH]c2=O)cc1 | > 100 µM | > 100 µM | > 100 µM | > 100 µM | > 100 µM | > 100 µM | > 100 µM | > 100 µM | > 100 µM |  |  |  |  |  |  |  |  | 
CO[C@]12C[C@@H](CNC(=O)c3cc(Br)c[nH]3)O[C@H]1NC(=O)N2 | > 100 µM | > 100 µM | > 100 µM | > 100 µM | > 100 µM | > 100 µM | > 100 µM | > 100 µM | > 100 µM |  |  |  |  |  |  |  |  | 
CCOc1cc(/C=C/C(=O)CC(=O)/C=C/c2ccc(OC(=O)CNCCN(CC)CC)c(OCC)c2)ccc1OC(=O)CNCCN(CC)CC | 1.66 µM | 3.58 µM | 6.31 µM | 6.07 µM | > 100 µM | 10.7 µM | 2.82 µM | 3.16 µM | 3.82 µM | 0.394 µM | 1.5 µM | 1.56 µM | 2.24 µM | 4.35 µM | 1.62 µM | 1.27 µM | 1.53 µM | 1.7 µM
Clc1cccc2[nH]ncc12 | > 100 µM | 95.4 µM | > 100 µM | > 100 µM | > 100 µM | > 100 µM | > 100 µM | > 100 µM |  |  |  |  |  |  |  |  |  | 
CCOP(=O)(/C=C\n1ccc(=O)[nH]c1=O)OCC | > 100 µM | > 100 µM | > 100 µM | > 100 µM | > 100 µM | > 100 µM | > 100 µM | > 100 µM |  |  |  |  |  |  |  |  |  | 
NC(N)=N/N=C\c1c(-c2ccccc2)nc2sccn12 | 73.3 µM | 28.1 µM | 29.2 µM |  | 29.5 µM | 28.5 µM | 28.5 µM | 29.4 µM | 31.6 µM |  |  |  |  |  |  |  |  | 
CCCCOc1ccc(S(=O)(=O)/N=C(\N)Nc2ccc(Cl)cc2)cc1 |  | 23.2 µM |  | 31.8 µM | 26.5 µM | 31 µM | 28 µM | 27.1 µM | 34.8 µM |  |  |  |  |  |  |  |  | 
COC1(c2ccccc2)NC(=S)NN=C1c1ccccc1 (stereo not given) | > 100 µM | > 100 µM | 39.1 µM | 84.6 µM |  | > 100 µM | 46.6 µM | > 100 µM | > 100 µM |  |  |  |  |  |  |  |  | 
CC1=C2CC(C)(C)CC(=O)C2(C)CCC1=O (stereo not given) | > 100 µM | > 100 µM |  |  | > 100 µM | > 100 µM | > 100 µM | > 100 µM | > 100 µM |  |  |  |  |  |  |  |  | 
CC(C)(CC1(C)NC(=O)NC1=O)OCc1ccccc1 (stereo not given) |  | > 100 µM | > 100 µM | > 100 µM | > 100 µM | > 100 µM | > 100 µM | > 100 µM | > 100 µM |  |  |  |  |  |  |  |  | 
CCN(CC)C(=S)SSCCO | 45.2 µM | 39.7 µM | 31.7 µM |  | 27.9 µM | 28.1 µM | 37.5 µM | 29.2 µM | 32.3 µM | 14.5 µM | 20.1 µM | 15.6 µM |  | 14.7 µM | 14.9 µM | 16.7 µM | 15.3 µM | 15.8 µM
O=C1CC(=O)NC(=NN2C(=O)/C(=C/c3ccc(Cl)cc3)N=C2c2ccccc2)N1 | 24.8 µM |  | 29.1 µM | 32.6 µM | 22.5 µM | 28.2 µM | 33 µM | 25.6 µM | 31.7 µM |  |  |  |  |  |  |  |  | 

SMILES | TGI (CCRF-CEM leukemia) | TGI (EKVX NSCLC) | TGI (MDA-MB-435) | TGI (OVCAR-3 ovarian) | TGI (OVCAR-4 ovarian) | TGI (PC-3 prostate) | TGI (U251 CNS) | TGI (UACC-62 melanoma) | TGI (UO-31 renal) | GI50 (CCRF-CEM leukemia) | GI50 (EKVX NSCLC) | GI50 (MDA-MB-435) | GI50 (OVCAR-3 ovarian) | GI50 (OVCAR-4 ovarian) | GI50 (PC-3 prostate) | GI50 (U251 CNS) | GI50 (UACC-62 melanoma) | GI50 (UO-31 renal)
O=C1NC2=NN=C(c3ccc(Br)cc3)CN2NC12c1ccccc1-c1ccccc12 |  | > 100 µM | > 100 µM | > 100 µM | > 100 µM | > 100 µM | > 100 µM | > 100 µM | > 100 µM |  |  |  |  |  |  |  |  | 
COc1cccc(N2C(=O)C3CC(CC(C)(C)C)c4c([nH]c5ccccc45)C3C2=O)c1 (stereo not given) | > 10 µM | > 10 µM | > 10 µM | > 10 µM | > 10 µM | > 10 µM | > 10 µM | > 10 µM |  |  |  |  |  |  |  |  |  | 
CC(=O)c1sc2c(c1O)c(=O)n(-c1ccccc1)c(=S)n2-c1ccccc1 |  |  | > 100 µM | > 100 µM | > 100 µM |  | > 100 µM | > 100 µM | > 100 µM |  |  |  |  |  |  |  |  | 
C/C(=N\Nc1nc2ccccc2n1C)c1ccc2ccccc2n1 | 1.67 µM | 4.3 µM | 42.7 µM | 0.213 µM | 0.954 µM |  | > 43.6 µM | 9.79 µM | 11.8 µM |  |  |  |  |  |  |  |  | 
O=C(/C=C/c1cccs1)c1ccc([N+](=O)[O-])cc1 | > 100 µM | > 100 µM | > 100 µM |  | > 100 µM | > 100 µM | > 100 µM | > 100 µM | > 100 µM |  |  |  |  |  |  |  |  | 
COc1cc(S(=O)(=O)Nc2ccc(-c3csc(/N=C\c4cccs4)n3)cc2)ccc1Cl | 80.3 µM | > 100 µM | 96.9 µM | > 100 µM | > 100 µM | > 100 µM |  | 92.2 µM | > 100 µM |  |  |  |  |  |  |  |  | 
O=C([O-])C1([n+]2c(-c3ccccc3)cc(-c3ccccc3)cc2-c2ccccc2)CC1 | > 100 µM | > 100 µM | 50.7 µM | > 100 µM | > 100 µM | > 100 µM | > 100 µM | 67.7 µM |  |  |  |  |  |  |  |  |  | 
CC(=O)Oc1ccc2cc(Oc3ccccc3)c(=O)oc2c1 |  | > 100 µM |  | > 100 µM | > 100 µM | > 100 µM | > 100 µM |  | > 100 µM |  |  |  |  |  |  |  |  | 
OC1CSCCSCCCSCCSC1 |  | > 100 µM | > 100 µM | > 100 µM | > 100 µM | > 100 µM | > 100 µM | > 100 µM | > 100 µM |  |  |  |  |  |  |  |  | 
C=CCCCCCCCCC(=O)ON(Cc1ccc(O)c(OC)c1)C(=O)C(F)(F)F | > 100 µM | > 100 µM | > 100 µM |  | > 100 µM |  | > 100 µM | > 100 µM | 68 µM |  |  |  |  |  |  |  |  | 
CCOP(=O)(/C=C/n1cnc2c(=O)n(C(C)=O)c(N)nc21)OCC | > 100 µM | > 100 µM | > 100 µM | > 100 µM | > 100 µM | > 100 µM | > 100 µM | > 100 µM |  |  |  |  |  |  |  |  |  | 
C=CC1(O)CCCC=C1COCc1ccccc1 (stereo not given) | > 100 µM | > 100 µM | > 100 µM |  | > 100 µM | > 100 µM | > 100 µM | > 100 µM | > 100 µM |  |  |  |  |  |  |  |  | 
CC(=O)N1c2ccccc2[C@H]2CCc3c([nH]c4ccccc34)[C@H]21 | 40.2 µM | 49 µM | 42.5 µM | 31.6 µM |  | > 100 µM | 26.5 µM | 27.7 µM | 67.6 µM |  |  |  |  |  |  |  |  | 
O=C1c2ccccc2/C=C\C(c2ccccc2)=N/N1c1ccccc1Cl | > 100 µM | > 100 µM | 16.8 µM | > 100 µM | 97.2 µM | 28.6 µM | 63.5 µM |  | 98.8 µM |  |  |  |  |  |  |  |  | 
O=C(O)c1ccccc1CC(Cc1ccccc1)C(=O)O (stereo not given) | > 100 µM | > 100 µM | > 100 µM | > 100 µM | > 100 µM | > 100 µM | > 100 µM |  | > 100 µM |  |  |  |  |  |  |  |  | 
CC(=O)OC1CC[C@@]2(C)C(=CC[C@@H]3[C@@H]2CC[C@]2(C)C(OC(C)=O)[C@H](n4ccnc4)C[C@@H]32)C1 (stereo not given in full) | 37.1 µM | > 100 µM | 31.6 µM |  | 46.6 µM | 39.5 µM | > 100 µM | 30.3 µM | > 100 µM |  |  |  |  |  |  |  |  | 
Nc1c(C(=O)c2ccccc2)nnc2ccccc12 |  | > 100 µM | 60.3 µM |  | > 100 µM | 59.6 µM | > 100 µM | 45 µM | > 100 µM |  |  |  |  |  |  |  |  | 
Nc1ncc(Sc2ccccc2C(=O)O)s1 | > 100 µM | > 100 µM | > 100 µM | > 100 µM |  | > 100 µM | > 100 µM | > 100 µM | > 100 µM |  |  |  |  |  |  |  |  | 
